We go through two molecules from ChEMBL document CHEMBL3870365, “Development of 4-Heteroarylamino-1'-azaspiro[oxazole-5,3'-bicyclo[2.2.2]octanes] as α7 Nicotinic Receptor Agonists” (ACS Med Chem Lett, 2017).

For series [1] the following is noted: mouse, in vivo, sc, 0.01 mg/kg, 0.5 h.
Series [2] can be described thus: in vivo. The following applies: C57BL/6, mouse, plasma, sc, 0.01 mg/kg.
The nature of series [3]: in vivo. The following applies: C57BL/6, mouse, brain/plasma, sc, 0.01 mg/kg.
The nature of series [4]: Plasma concentration in C57BL/6 mouse at 0.03 mg/kg, sc after 30 mins. It counts as ADME, organism-based.
Series [5] can be described thus: Ratio of drug level in brain to plasma in C57BL/6 mouse at 0.03 mg/kg, sc after 30 mins. It counts as ADME, organism-based. The following applies: read-out: BPR.
Series [6] can be described thus: Fraction unbound in C57BL/6 mouse plasma at 0.03 mg/kg, sc after 30 mins. The format is ADME, organism-based. As to conditions: in vivo, 0.5 h.

On to `Brc1ccc2c(NC3=NC[C@@]4(CN5CCC4CC5)O3)ncnn12`, for which the Cp(f) in series [1] is 50 to 75%. Besides, in series [2], the concentration at 0.5 h was 7 nM. The molecule further displayed a Kp at 0.5 h in series [3] of 4.9.
In series [4], `Clc1ccc2c(NC3=NC[C@@]4(CN5CCC4CC5)O3)ncnn12` gave a concentration at 0.5 h of 18 nM. Further, the Kp at 0.5 h in series [5] was determined as 1.9. Further, in series [6], the Cp(f) lay in the range of 50 to 75%.
